Results from patent US20110275635A1 (priority 2009, published 2011).
≈ marks a conversion by molar mass, not a printed value. Like-named read-outs stand apart in the source and are kept apart here.

Columns and labels:
S. pneumoniae = assay: microbe, parasite or virus in culture; type: cell-based; details: Streptococcus pneumoniae, read-out: MIC (μg/mL) S. pneumoniae
E. faecium VRE = assay: microbe, parasite or virus in culture; type: cell-based; details: Enterococcus faecium, read-out: MIC (μg/mL) E. faecium VRE
S. aureus = assay: microbe, parasite or virus in culture; type: cell-based; details: Staphylococcus aureus, read-out: MIC (μg/mL) S. aureus
[1] = system: Bacillus anthracis Sterne; assay: microbe, parasite or virus in culture; type: cell-based
B. cereus = assay: microbe, parasite or virus in culture; type: cell-based; details: Bacillus cereus, read-out: MIC (μg/mL) B. cereus
B. anthracis NADs = B. anthracis NADs (Bacillus anthracis, UniProt Q81RP3); type: biochemical
B. anthracis NADs, sequence (Q81RP3 whole entry, looked up): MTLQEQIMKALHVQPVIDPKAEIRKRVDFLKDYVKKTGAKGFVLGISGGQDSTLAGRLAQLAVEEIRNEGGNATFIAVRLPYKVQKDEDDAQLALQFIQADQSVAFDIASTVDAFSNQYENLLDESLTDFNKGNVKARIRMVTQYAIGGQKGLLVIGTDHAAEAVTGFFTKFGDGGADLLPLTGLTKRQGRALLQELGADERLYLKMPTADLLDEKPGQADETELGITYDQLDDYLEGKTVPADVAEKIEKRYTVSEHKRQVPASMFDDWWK

[2] = In vivo toxicity, maximum tolerated dose; details: female, BALB/c, mouse, intraperitoneal
E. faecalis = assay: microbe, parasite or virus in culture; type: cell-based; details: Enterococcus faecalis, read-out: MIC (μg/mL) E. faecalis
[3] = Pharmacokinetics, plasma concentration after intraperitoneal injection
S. aureus MRSA = assay: microbe, parasite or virus in culture; type: cell-based; details: Staphylococcus aureus, read-out: MIC (μg/mL) S. aureus MRSA
B. anthracis = assay: microbe, parasite or virus in culture; type: cell-based; details: Bacillus anthracis, read-out: MIC (μg/mL) B. anthracis
HCC1937 = assay: In vitro human breast cancer cell growth inhibition; type: cell-based; details: HCC1937 cells, read-out: In Vitro Human Breast Cancer Inhibition (IC50, μM) HCC1937
SUM159 = assay: as above; type: cell-based; details: SUM159 cells, read-out: In Vitro Human Breast Cancer Inhibition (IC50, μM) SUM159
BEAS-23 = assay: In vitro inhibition of normal human cells; type: cell-based; details: read-out: In Vitro Inhibition Normal Human Cells (IC50, μM) BEAS-23
HEK293 = assay: In vitro inhibition of normal human cells; type: cell-based
IMR90 = assay: In vitro inhibition of normal human cells; type: cell-based; details: IMR-90
Hep-G2 = assay: In vitro inhibition of normal human cells; type: cell-based; details: HepG2
MDA-MB-436 = assay: In vitro human breast cancer cell growth inhibition; type: cell-based; details: MDA-MB-436 cells, read-out: In Vitro Human Breast Cancer Inhibition (IC50, μM) MDA-MB-436
hNaMNAT-1 = hNaMNAT-1 (Homo sapiens, UniProt Q9HAN9); assay: Human NAMNAT inhibition in vitro; type: biochemical
hNaMNAT-1, sequence (Q9HAN9 whole entry): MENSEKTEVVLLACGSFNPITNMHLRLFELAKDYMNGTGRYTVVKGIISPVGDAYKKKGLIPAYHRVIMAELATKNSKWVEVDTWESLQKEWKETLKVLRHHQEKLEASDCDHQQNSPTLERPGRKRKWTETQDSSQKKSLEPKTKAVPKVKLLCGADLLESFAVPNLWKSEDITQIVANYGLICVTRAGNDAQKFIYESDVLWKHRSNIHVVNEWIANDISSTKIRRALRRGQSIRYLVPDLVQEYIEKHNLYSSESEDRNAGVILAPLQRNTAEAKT

In the case of `O=C(Nc1ccc([N+](=O)[O-])cc1)Nc1ccc(S(=O)(=O)Nc2ccc(Cl)c(Cl)c2)cc1` [Compound 5824], the MIC (S. pneumoniae) is reported as 3.6 µg/mL (≈ 7.48 µM), the MIC (E. faecium VRE) is reported as 10.8 µg/mL (≈ 22.4 µM) and the MIC (S. aureus) is reported as 10.8 µg/mL (≈ 22.4 µM). The “activity against B. anthracis (in words)” value [1] was “good activities”, the MIC ([1]; Bacillus anthracis, read-out: B.a. MIC (μM)) was 1.9 µM (≈ 0.915 µg/mL) and the MIC (B. cereus) was 0.78 µg/mL (≈ 1.62 µM). For the same compound, the “activity against NADs (in words)” value (B. anthracis NADs) was “good activities”, the IC50 (B. anthracis NADs; read-out: IC50) was 10 µM and the IC50 (B. anthracis NADs; read-out: NADs IC50) was 10 µM. For the same compound, the MTD [2] was 25 mg/kg, the MIC (E. faecalis) was 14 µg/mL (≈ 29.1 µM) and the “time to highest plasma drug concentration” value (“time” below) ([3]; 25 mg/kg (Bid), second dose 8 hr after first, time after first dose) was “about 12 hours”. The “time” value ([3]; 25 mg/kg (QD), mouse plasma) was 2 h, the “time” value ([3]; 50 mg/kg (QD), mouse plasma) was 2 h and the MIC (S. aureus MRSA) was 5.5 µg/mL (≈ 11.4 µM). For the same compound, the MIC (B. anthracis) was 1.2 µg/mL (≈ 2.49 µM).
`O=[N+]([O-])c1cc(S(=O)(=O)NCc2ccco2)ccc1NNC(=S)Nc1cccc(C(F)(F)F)c1` [Compound 6034] showed an IC50 (HCC1937) of 60 µM, an IC50 (SUM159) of 50 µM and an IC50 (BEAS-23) of 186 µM. It also gave an IC50 (HEK293) of 176 µM, an IC50 (IMR90) of 148 µM and an IC50 (Hep-G2) of 90 µM. The IC50 (MDA-MB-436) was 70 µM and the IC50 (hNaMNAT-1) was 28 µM.
